One data set addresses T1, recombinant PDK-1 (Homo sapiens, UniProt O15530).
T1 construct: purchased Upstate (Lake Placid, N.Y.)
T1 sequence (O15530 1-556): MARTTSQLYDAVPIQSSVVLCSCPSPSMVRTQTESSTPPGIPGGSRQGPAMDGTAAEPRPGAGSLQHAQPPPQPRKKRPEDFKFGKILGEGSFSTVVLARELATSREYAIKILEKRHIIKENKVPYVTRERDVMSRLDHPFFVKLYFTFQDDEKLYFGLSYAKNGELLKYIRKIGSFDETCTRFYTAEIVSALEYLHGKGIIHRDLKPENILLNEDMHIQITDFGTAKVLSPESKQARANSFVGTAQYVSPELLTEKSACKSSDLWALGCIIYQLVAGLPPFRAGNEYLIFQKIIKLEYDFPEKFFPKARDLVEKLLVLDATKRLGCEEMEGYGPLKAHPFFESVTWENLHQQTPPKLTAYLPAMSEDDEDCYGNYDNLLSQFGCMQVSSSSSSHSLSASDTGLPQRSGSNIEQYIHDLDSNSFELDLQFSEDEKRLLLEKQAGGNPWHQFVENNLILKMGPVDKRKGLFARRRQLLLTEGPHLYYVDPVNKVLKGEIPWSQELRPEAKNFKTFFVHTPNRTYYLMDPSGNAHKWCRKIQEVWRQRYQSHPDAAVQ
The data set can be described thus: PDK-1 kinase activity (Upstate kit, SGK-coupled, cell-free). Format: biochemical. To be noted: for IC50: inhibiting recombinant PDK-1 kinase activity, read-out: IC50 PDK-1.

The test system of a further data set is PC-3 cells. The data set can be described thus: Cell viability analysis (MTT) in PC-3 cells. Type of data set: cell-based, human. Particulars: Homo sapiens; inducing apoptotic death in PC-3 cells / PC-3 cell viability; read-out: IC50 PC-3. As for the experimental part:
Cell Culture PC-3 (p53−/−) human androgen-nonresponsive prostate cancer cells were purchased from the American […] (Manassas, Va.). Cells were cultured in RPMI 1640 medium (Gibco, Grand Island, N.Y.) supplemented with 10% fetal bovine serum (FBS; Gibco) at 37° C. in a humidified incubator containing 5% CO2.
Cell viability analysis The effect of 4-[5-(4-methylphenyl)-3-(trifluoromethyl)-1H-pyrazol-1-yl]benzenesulfonamide and its derivatives on PC-3 cell viability was assessed by using the MTT {[3-(4,5-dimethylthiazol-2-yl)-2,5-diphenyl-2H-tetrazolium bromide]} assay in six replicates. Cells were grown in 10% FBS-supplemented RPMI 1640 medium in 96-well, flat bottomed plates for 24 h, and were exposed to various concentrations of compounds 1-36 dissolved in DMSO (final concentration ≦0.1%) in 1% serum-containing RPMI 1640 medium for different time intervals. Controls received DMSO vehicle at a concentration equal to that in drug-treated cells. The medium was removed, replaced by 200 μl of 0.5 mg/ml of MTT in 10% FBS-containing RPMI-1640 medium, and cells were incubated in the CO2 incubator at 37° C. for 2 h. Supernatants were removed from the wells, and the reduced MTT dye was solubilized in 200 μL/well DMSO. Absorbance at 570 nm was determined on a plate reader.

The next data set has as its system immunoprecipitated Akt. The data set can be described thus: Direct inhibition of immunoprecipitated Akt kinase activity. Format: biochemical, human.
Data set [1] has as its system sixty human tumor cell lines. In words: NCI DTP sixty cell line assay, means over the panel. Type of data set: cell-based. As for the experimental part: (§1) Screening of compounds 70 and 71 against several cancer cell lines The human tumor cell lines of the cancer screening panel are grown in RPMI 1640 medium containing 5% fetal bovine serum and 2 mM L-glutamine. For a typical screening experiment, cells are inoculated into 96 well microtiter plates in 100 μL at plating densities ranging from 5,000 to 40,000 cells/well depending on the doubling time of individual cell lines. After cell inoculation, the microtiter plates are incubated at 37° C., 5% CO2, 95% air and 100% relative humidity for 24 h prior to addition of experimental drugs.
(§2) After 24 h, two plates of each cell line are fixed in situ with TCA, to represent a measurement of the cell population for each cell line at the time of drug addition (Tz). Experimental drugs are solubilized in dimethyl sulfoxide at 400-fold the desired final maximum test concentration and stored frozen prior to use. At the time of drug addition, an aliquot of frozen concentrate is thawed and diluted to twice the desired final maximum test concentration with complete medium containing 50 μg/ml gentamicin. Additional four, 10-fold or ½ log serial dilutions are made to provide a total of five drug concentrations plus control. Aliquots of 100 μl of these different drug dilutions are added to the appropriate microtiter wells already containing 100 μl of medium, resulting in the required final drug concentrations.
(§3) Following drug addition, the plates are incubated for an additional 48 h at 37° C., 5% CO2, 95% air, and 100% relative humidity. For adherent cells, the assay is terminated by the addition of cold TCA. Cells are fixed in situ by the gentle addition of 50 μl of cold 50% (w/v) TCA (final concentration, 10% TCA) and incubated for 60 minutes at 4° C. The supernatant is discarded, and the plates are washed five times with tap water and air dried. Sulforhodamine B (SRB) solution (100 μl) at 0.4% (w/v) in 1% acetic acid is added to each well, and plates are incubated for 10 minutes at room temperature. After staining, unbound dye is removed by washing five times with 1% acetic acid and the plates are air dried. Bound stain is subsequently solubilized with 10 mM trizma base, and the absorbance is read on an automated plate reader at a wavelength of 515 nm. For suspension cells, the methodology is the same except that the assay is terminated by fixing settled cells at the bottom of the wells by gently adding 50 μl of 80% TCA (final concentration, 16% TCA). Using the seven absorbance measurements [time zero, (Tz), control growth, (C), and test growth in the presence of drug at the five concentration levels (Ti)], the percentage growth is calculated at each of the drug concentrations levels. Percentage growth inhibition is calculated as: [(Ti−Tz)/(C−Tz)]×100 for concentrations for which Ti>/=Tz [(Ti−Tz)/Tz]×100 for concentrations for which Ti<Tz
(§4) Three dose response parameters are calculated for each experimental agent. […] The drug concentration resulting in total growth inhibition (TGI) is calculated from Ti=Tz. […] Values are calculated for each of these three parameters if the level of activity is reached; however, if the effect is not reached or is exceeded, the value for that parameter is expressed as greater or less than the maximum or minimum concentration tested.

In a further data set the test system is NCI-H322M. In words: NCI DTP screen (SRB), Non-Small Cell Lung Cancer. Type of data set: cell-based. To be noted: NCI-H322H. As for the experimental part: as §1, §2, §3, §4
Another data set relates to U251. The data set can be described thus: NCI DTP screen (SRB), CNS Cancer. Format: cell-based, human. To be noted: Log10 Concentration −4.0. Here is the method: Screening of compounds 70 and 71 against several cancer cell lines The human tumor cell lines of the cancer screening panel are grown in RPMI 1640 medium containing 5% fetal bovine serum and 2 mM L-glutamine. For a typical screening experiment, cells are inoculated into 96 well microtiter plates in 100 μL at plating densities ranging from 5,000 to 40,000 cells/well depending on the doubling time of individual cell lines. After cell inoculation, the microtiter plates are incubated at 37° C., 5% CO2, 95% air and 100% relative humidity for 24 h prior to addition of experimental drugs. […]
Following drug addition, the plates are incubated for an additional 48 h at 37° C., 5% CO2, 95% air, and 100% relative humidity. […] Bound stain is subsequently solubilized with 10 mM trizma base, and the absorbance is read on an automated plate reader at a wavelength of 515 nm. […] Using the seven absorbance measurements [time zero, (Tz), control growth, (C), and test growth in the presence of drug at the five concentration levels (Ti)], the percentage growth is calculated at each of the drug concentrations levels. Percentage growth inhibition is calculated as: [(Ti−Tz)/(C−Tz)]×100 for concentrations for which Ti>/=Tz [(Ti−Tz)/Tz]×100 for concentrations for which Ti<Tz
Three dose response parameters are calculated for each experimental agent. […]

A further data set concerns LOX IMVI. In words: NCI DTP screen (SRB), Melanoma. Format: cell-based. Particulars: LOX IKVI. As for the experimental part:
as §1, §2, §3, §4

A further data set concerns MALNE-3M. In words: NCI DTP screen (SRB), Melanoma. Type of data set: cell-based. Particulars: MALME-3M.
The subject of another data set is RXP 393. The data set can be described thus: NCI DTP screen (SRB), Renal Cancer. Type of data set: cell-based, human. As for the experimental part:
as §1, §2, §3, §4

In the next data set the test system is UO-31. In words: NCI DTP screen (SRB), Renal Cancer. Type of data set: cell-based, human. Particulars: UD-31. Here is the method: as §1, §2, §3, §4
The next data set relates to MCP7. The data set can be described thus: NCI DTP screen (SRB), Breast Cancer. Type of data set: cell-based, human. To be noted: MCF7. Here is the method:
as §1, §2, §3, §4

A further data set relates to HS 57BT. In words: NCI DTP screen (SRB), Breast Cancer. Type of data set: cell-based. Particulars: HS S78T. Here is the method: as §1, §2, §3, §4
The conditions of data set [2]: in vivo.
The nature of data set [3]: Preliminary animal studies, daily oral administration. Particulars: daily oral administration for one month; data not shown.

Experimental for recombinant PDK-1: PDK-1 kinase activity This in vitro assay was performed using a PDK-1 kinase assay kit (Upstate, Lake Placid, N.Y.) according to the vendor's instructions. This cell-free assay is based on the ability of recombinant PDK-1, in the presence of DMSO vehicle or the test agent, to activate its downstream kinase serum- and glucocorticoid-regulated kinase (SGK.) which, in turn, phosphorylates the Akt/SGK-specific peptide substrate RPRAATF with [γ-^32]-ATP. […] The reported values represent the means of two independent determinations.

Regarding `NN=Cc1ccc(-n2nc(C(F)(F)F)cc2-c2ccc3c(ccc4ccccc43)c2)cc1` [Compound 66, 4-[5-(2-Phenanthrenyl)-3-(trifluoromethyl)-1H-pyrazol-1-yl]-benzaldehyde hydrazone], the results for the IC50 on recombinant PDK-1 and with PC-3 cells were 16 µM and 10 µM, respectively.

In the case of `N#CCc1ccc(-n2nc(C(F)(F)F)cc2-c2ccc3c(ccc4ccccc43)c2)cc1` [Compound 67, {4-[5-(2-Phenanthrenyl)-3-(trifluoromethyl)-1H-pyrazol-1-yl]-phenyl}-acetonitrile], the values for the IC50 at recombinant PDK-1 and in the data set with PC-3 cells were 42 µM and 25 µM, respectively.

For the molecule `N=C(N)Nc1ccc(-n2nc(C(F)(F)F)cc2-c2ccc3c(ccc4ccccc43)c2)cc1` [Compound 71, 4-[5-(2-Phenanthrenyl)-3-(trifluoromethyl)-1H-pyrazol-1-yl]-phenyl-guanidine], the “increase in PDK-1 inhibition potency over compound 59” value at recombinant PDK-1 (ratio of IC50 values) is reported as “five-fold”. The “direct inhibitory effect on immunoprecipitated Akt kinase activity” value with immunoprecipitated Akt is “no appreciable direct inhibition”. In addition, in data set [1], the “range in which cell growth is completely suppressed in a diverse range of tumor cell lines” value fell in the range of 3 to 5 µM. Further, in data set [1] (two-day exposure, 5% FBS-containing medium), the “concentration at which many cell lines respond to the growth inhibitory effect” value was ≥ 0.1 µM. Besides, the GI50 in [1] (two-day treatment, serum-containing medium, read-out: mean GI50 among the sixty cell lines) amounted to 1.3 µM. Moreover, the “Percent Growth” value with NCI-H322M (Log10 Concentration −4.0) is listed as −59%; in the data set on NCI-H322M (Log10 Concentration −5.0), −100%; in the data set on U251 it was −12%; in the data set with LOX IMVI (Log10 Concentration −4.0) it was −53%; with LOX IMVI (Log10 Concentration −5.0) it was −98%; in the data set on MALNE-3M (Log10 Concentration −4.0), −50%. The “Percent Growth” value in the data set with MALNE-3M (Log10 Concentration −5.0) is −87%; with RXP 393 (Log10 Concentration −4.0) it was −4%; in the data set with RXP 393 (Log10 Concentration −5.0) it was −61%; with UO-31 (Log10 Concentration −4.0) it was −35%; in the data set on UO-31 (Log10 Concentration −5.0), −100%; with MCP7 (Log10 Concentration −4.0) it was −49%. Besides, the “Percent Growth” value is on record as −84% in the data set with MCP7 (Log10 Concentration −5.0), −38% in the data set on HS 57BT (Log10 Concentration −4.0) and −69% in the data set on HS 57BT (Log10 Concentration −5.0). The oral absorption entry in data set [2] was “can be orally absorbed”. The “average serum concentrations relative to TGI” value in data set [2] (po) was “average serum concentrations several-fold higher than TGI”. Further, the “toxicity to the animals” value in data set [3] is “little toxicity”.

Turning to `NC(=O)Nc1ccc(-n2nc(C(F)(F)F)cc2-c2ccc3c(ccc4ccccc43)c2)cc1` [Compound 72, 4-[5-(2-Phenanthrenyl)-3-(trifluoromethyl)-1H-pyrazol-1-yl]phenyl urea], the IC50 at recombinant PDK-1 was 40 µM; in the data set with PC-3 cells, 24 µM.

The values are drawn from US20060079566A1, “PDK-1/Akt signaling inhibitors” (priority 2003, published 2006).
